Measurements reported in ChEMBL document CHEMBL1201862, “PubChem BioAssay data set” (2004).
Active and inactive are the calls of the source.

How the values were obtained:
[1] = target: 5-hydroxytryptamine receptor 1A (Homo sapiens, UniProt P08908); assay type: functional
Escherichia coli = assay: microbe, parasite or virus in culture
[2] = target: Beta-2 adrenergic receptor (Homo sapiens, UniProt P07550); assay: ADRB2 activation measured by internalization – cell-based, FAP fluorogen, flow cytometry, cherry pick 1, dose response (AID 588763); assay type: functional
Mu-type opioid receptor = Mu-type opioid receptor (Homo sapiens, UniProt P35372); assay: (§1) Counterscreen for agonists of heterodimerization of the mu 1 (OPRM1) and delta 1 (OPRD1) opioid receptors: Luminescence-based cell-based high throughput dose response assay to identify agonists of OPRM1 homodimerization.; assay type: functional
[3] = target: 5-hydroxytryptamine receptor 5A (Homo sapiens, UniProt P47898); assay: Counterscreen for agonists of OPRM1-OPRD1 heterodimerization: luminescence-based cell-based high throughput dose response assay to identify agonists of 5-hydroxytryptamine (serotonin) 5A receptor (HTR5A). [Related pubchem assays (depositor defined):AID504326, AID504355, AID504692, AID504904, AID504905]; assay type: functional
[4] = target: Delta-type opioid receptor (Homo sapiens, UniProt P41143); assay: as §1, with “of OPRD1” for “of OPRM1”, “homodimerization. [Related pubchem assays (depositor defined):AID504326, AID504355, AID504692, AID504904, AID504905]” for “homodimerization.”; assay type: functional
Albumin = Albumin (Bos taurus, UniProt P02769); assay: Counterscreen for inhibitors of T-cell receptor (TCR)-CD3 interaction: Fluorescence-based biochemical high throughput dose response assay to identify inhibitors of T-cell receptor (TCR)-CD3 interaction using a TAMRA-labeled BSA probe.; assay type: functional
[5] = target: Serine/threonine-protein phosphatase (Candida dubliniensis (strain CD36 / CBS 7987 / NCPF 3949 / NRRLY-17841) (Yeast), UniProt B9W6M3); assay: blockers of CaCl2-induced CDRE-lacZ signaling – S. cerevisiae, luminescence, secondary, dose response (AID 2388); assay type: functional, cell-based;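 note: yeast reporter cells carrying a calcineurin-responsive lacZ construct stimulated with calcium chloride; luminescent beta-galactosidase reporter signal in whole cells rather than isolated phosphatase activity; potency for inhibition where a drop in reporter signal means calcineurin blockade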
[6] = tested on: Streptococcus sp. 'group A'; assay: Streptococcus pyogenes SK(-)GAS viability under kanamycin – luminescence, BacTiterGlo, confirmation, counter-screen for streptokinase expression inhibitor project, dose response (AID 1900); assay type: functional, organism-based
Streptococcus = assay: GAS UMAA2166 growth inhibition – luminescence, BacTiterGlo, counter-screen for streptokinase expression inhibitor project, dose response (AID 1915); assay type: functional, organism-based;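 note: potency for reduction of bacterial viability or growth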
[7] = fluconazole-exposed Candida albicans growth modulators – fluorescence, retest, confirmation (AID 2467); assay type: functional, cell-based
[8] = NIH-3T3 fibroblast cytotoxicity, dose response, cytotoxicity control, cell-based, fluorescence, Alamar Blue, secondary assay (AID 2327); assay type: functional;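 note: NIH-3T3 mouse fibroblasts cultured with fluconazole at 8 µg/mL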
[9] = target: ATP-dependent molecular chaperone HSP82 (Candida albicans (strain WO-1) (Yeast), UniProt C4YTQ8); assay: steroid-induced GRE reporter decrease in yeast – S. cerevisiae, luminescence, Hsp90 inhibitor project, dose response (AID 2400); assay type: functional, cell-based;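 note: beta-galactosidase luminescence from glucocorticoid response element reporter as proxy for Hsp90 function; inhibitor potency where signal loss means Hsp90 inhibition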
A-375 [10] = assay: proliferation inhibition in MITF-low A375 cells – cell-based, cherry-pick samples, set 2, counter-screen for MITF modulator project, dose response (AID 540335); assay type: functional; conditions: Homo sapiens
A-375 [11] = assay: MITF: Counter assay: A375 proliferation Measured in Cell-Based System Using Plate Reader - 2084-03_Inhibitor_Dose_DryPowder_Activity. [Related pubchem assays (depositor defined):AID488944]; assay type: functional; conditions: Homo sapiens

Chain of Beta-2 adrenergic receptor (P07550 whole entry): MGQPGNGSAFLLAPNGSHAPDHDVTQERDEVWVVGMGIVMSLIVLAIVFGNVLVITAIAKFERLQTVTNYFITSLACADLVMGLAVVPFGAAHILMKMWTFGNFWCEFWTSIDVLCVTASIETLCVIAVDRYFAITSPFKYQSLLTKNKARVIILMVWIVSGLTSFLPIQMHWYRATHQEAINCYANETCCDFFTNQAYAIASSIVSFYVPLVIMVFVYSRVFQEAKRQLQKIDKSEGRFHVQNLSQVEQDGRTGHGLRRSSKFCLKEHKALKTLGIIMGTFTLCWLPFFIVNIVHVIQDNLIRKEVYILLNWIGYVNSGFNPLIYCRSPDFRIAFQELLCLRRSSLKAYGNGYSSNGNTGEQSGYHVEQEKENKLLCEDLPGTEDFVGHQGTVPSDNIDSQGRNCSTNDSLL
Chain of ATP-dependent molecular chaperone HSP82 (C4YTQ8 whole entry): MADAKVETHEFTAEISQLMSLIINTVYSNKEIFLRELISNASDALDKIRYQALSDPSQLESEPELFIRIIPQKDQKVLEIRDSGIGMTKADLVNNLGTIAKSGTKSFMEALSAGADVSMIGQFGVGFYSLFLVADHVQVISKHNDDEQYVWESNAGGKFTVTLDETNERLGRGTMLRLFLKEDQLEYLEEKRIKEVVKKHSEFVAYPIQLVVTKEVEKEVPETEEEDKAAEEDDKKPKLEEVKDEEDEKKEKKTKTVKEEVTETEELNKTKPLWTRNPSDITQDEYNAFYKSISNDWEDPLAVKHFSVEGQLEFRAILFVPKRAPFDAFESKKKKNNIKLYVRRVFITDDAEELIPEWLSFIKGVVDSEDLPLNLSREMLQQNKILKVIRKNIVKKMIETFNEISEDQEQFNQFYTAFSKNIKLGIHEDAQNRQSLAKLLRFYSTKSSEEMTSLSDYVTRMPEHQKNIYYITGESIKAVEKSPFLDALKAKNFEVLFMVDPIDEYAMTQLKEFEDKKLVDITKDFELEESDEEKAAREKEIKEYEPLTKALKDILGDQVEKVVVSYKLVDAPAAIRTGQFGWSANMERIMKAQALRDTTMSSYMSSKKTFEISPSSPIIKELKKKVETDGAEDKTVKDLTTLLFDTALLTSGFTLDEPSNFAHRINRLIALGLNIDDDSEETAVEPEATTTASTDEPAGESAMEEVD
Chain of 5-hydroxytryptamine receptor 5A (P47898 whole entry): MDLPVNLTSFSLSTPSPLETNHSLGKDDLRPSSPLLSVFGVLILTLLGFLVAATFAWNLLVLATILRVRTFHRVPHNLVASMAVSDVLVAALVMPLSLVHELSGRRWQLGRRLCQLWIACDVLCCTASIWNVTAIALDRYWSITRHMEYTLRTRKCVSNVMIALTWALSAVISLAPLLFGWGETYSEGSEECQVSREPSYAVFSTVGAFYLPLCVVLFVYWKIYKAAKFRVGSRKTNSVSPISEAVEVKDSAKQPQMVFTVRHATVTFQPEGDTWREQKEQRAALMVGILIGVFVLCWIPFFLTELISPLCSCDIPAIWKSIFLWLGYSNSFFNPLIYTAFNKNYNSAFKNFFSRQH
Chain of Delta-type opioid receptor (P41143 whole entry): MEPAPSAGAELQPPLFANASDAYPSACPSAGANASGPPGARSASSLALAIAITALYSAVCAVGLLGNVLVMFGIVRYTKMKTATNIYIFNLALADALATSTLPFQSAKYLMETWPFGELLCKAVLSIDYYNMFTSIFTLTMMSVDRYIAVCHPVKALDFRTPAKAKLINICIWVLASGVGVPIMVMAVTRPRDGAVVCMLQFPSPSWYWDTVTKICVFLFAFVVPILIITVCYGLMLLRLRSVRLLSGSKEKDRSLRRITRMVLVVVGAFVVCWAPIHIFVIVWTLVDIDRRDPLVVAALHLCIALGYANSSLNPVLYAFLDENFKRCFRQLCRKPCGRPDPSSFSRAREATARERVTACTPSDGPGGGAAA
Chain of Albumin (P02769 whole entry): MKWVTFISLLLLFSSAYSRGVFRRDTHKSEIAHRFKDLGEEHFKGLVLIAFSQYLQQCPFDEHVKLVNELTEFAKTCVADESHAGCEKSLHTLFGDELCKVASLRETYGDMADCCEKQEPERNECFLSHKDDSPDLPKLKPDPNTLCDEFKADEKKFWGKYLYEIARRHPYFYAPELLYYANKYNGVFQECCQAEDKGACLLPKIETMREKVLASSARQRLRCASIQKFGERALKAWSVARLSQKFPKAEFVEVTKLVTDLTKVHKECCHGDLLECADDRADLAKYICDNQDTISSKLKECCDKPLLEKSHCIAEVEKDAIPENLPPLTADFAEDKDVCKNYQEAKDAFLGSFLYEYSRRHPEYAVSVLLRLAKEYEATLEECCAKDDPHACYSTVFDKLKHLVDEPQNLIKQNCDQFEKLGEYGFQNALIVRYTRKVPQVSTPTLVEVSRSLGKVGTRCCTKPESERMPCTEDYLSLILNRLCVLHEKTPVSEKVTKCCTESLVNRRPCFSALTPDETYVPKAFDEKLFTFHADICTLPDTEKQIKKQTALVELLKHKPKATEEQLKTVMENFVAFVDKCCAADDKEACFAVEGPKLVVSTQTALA
Chain of 5-hydroxytryptamine receptor 1A (P08908 whole entry): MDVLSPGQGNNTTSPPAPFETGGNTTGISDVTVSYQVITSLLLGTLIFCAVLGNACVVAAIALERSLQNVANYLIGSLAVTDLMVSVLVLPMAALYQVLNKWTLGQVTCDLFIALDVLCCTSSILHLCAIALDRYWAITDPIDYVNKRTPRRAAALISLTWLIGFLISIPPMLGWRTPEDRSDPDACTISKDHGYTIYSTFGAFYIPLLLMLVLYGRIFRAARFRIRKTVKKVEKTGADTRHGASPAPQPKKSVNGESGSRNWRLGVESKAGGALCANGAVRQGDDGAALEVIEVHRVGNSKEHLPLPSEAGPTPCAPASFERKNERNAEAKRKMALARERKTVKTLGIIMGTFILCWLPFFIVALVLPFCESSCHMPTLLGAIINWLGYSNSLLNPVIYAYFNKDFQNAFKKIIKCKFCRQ
Chain of Serine/threonine-protein phosphatase (B9W6M3 whole entry): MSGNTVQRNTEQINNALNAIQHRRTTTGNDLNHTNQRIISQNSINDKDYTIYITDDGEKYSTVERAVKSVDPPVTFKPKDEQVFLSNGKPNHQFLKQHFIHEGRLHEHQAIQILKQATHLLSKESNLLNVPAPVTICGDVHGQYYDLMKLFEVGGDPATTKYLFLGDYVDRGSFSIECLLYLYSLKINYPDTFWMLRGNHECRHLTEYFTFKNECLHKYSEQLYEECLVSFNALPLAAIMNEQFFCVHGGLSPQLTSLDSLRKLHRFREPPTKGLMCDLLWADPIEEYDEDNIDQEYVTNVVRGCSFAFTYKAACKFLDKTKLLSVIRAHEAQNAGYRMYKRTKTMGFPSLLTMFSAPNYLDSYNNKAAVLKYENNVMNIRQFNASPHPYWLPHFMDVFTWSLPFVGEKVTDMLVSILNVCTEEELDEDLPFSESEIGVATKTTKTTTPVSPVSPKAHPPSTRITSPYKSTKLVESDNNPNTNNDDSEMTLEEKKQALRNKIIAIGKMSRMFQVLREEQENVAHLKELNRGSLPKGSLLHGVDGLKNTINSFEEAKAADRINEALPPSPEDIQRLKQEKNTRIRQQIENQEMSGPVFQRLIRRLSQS
Chain of Mu-type opioid receptor (P35372 whole entry): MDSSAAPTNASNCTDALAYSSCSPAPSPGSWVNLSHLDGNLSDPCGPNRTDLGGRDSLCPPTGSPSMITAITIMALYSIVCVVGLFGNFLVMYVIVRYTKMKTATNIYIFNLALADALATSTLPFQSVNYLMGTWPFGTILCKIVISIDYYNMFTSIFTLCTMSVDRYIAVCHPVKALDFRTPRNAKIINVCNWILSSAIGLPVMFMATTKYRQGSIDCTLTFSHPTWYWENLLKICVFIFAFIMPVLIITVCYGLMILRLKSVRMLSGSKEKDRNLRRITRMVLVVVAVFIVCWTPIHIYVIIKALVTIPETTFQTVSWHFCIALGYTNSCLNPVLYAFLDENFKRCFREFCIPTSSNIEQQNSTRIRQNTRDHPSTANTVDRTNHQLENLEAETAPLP

Cn1c(-c2ccccc2)cnc1SCc1nc(O)c2ccccc2n1
EC50 [1]: > 50 µM (not active)
AC50 (Escherichia coli): 234 µM (active)

Cc1cc(C)cc(C(=O)NC(CC(N)=O)c2ccc(N3CCN(c4ccccn4)CC3)c([N+](=O)[O-])c2)c1 (stereo not given)
EC50 [2]: 0.714 µM (active)

CCOC(=O)C1(c2ccccc2)CCN(CCC(=O)Nc2cccc(Br)c2)CC1
EC50 (Mu-type opioid receptor): 40.6 µM (inactive)
EC50 [3]: > 92.5 µM (inactive)
EC50 [4]: 56.8 µM (inactive)

Cc1cc(C(=O)N/N=C/c2cc(Cl)cc([N+](=O)[O-])c2O)c2ccccc2n1
IC50 (Albumin): > 94.1 µM (inactive)
EC50 [5]: > 180 µM (inactive)
EC50 [6]: 1.03 µM (active)
EC50 (Streptococcus): 1.51 µM (active)
EC50 [7]: 14.7 µM (active)
EC50 [8]: 34.3 µM (active)
EC50 [9]: 17.5 µM (active)

C/C(=N\Nc1cc(N2CCOCC2)ncn1)c1ccccc1
AC50 (A-375 [10]): > 35 µM (active)
AC50 (A-375 [11]): > 35 µM (active)
